# Measured values taken from patent US20070232567A1, “Formulations Of Low Dose Non-Steroidal Anti-Inflammatory Drugs And Beta-Cyclodextrin” (priority 2006, published 2007).
# System: patients with moderate-to-severe post-surgical (dental) pain
# Assay: Randomized, double-blind, single-dose, placebo- and comparator-controlled study of pain relief by administered dose
# Type: in vivo, human
# Description: A 336-patient, seven treatment arm, randomized, double-blind, single-dose, and placebo- and comparator-controlled, parallel-group study was conducted. Patients were randomly assigned to receive a single dose of either diclofenac sodium solubilized with hydroxypropyl-beta-cyclodextrin (hereinafter “DIC”), ketorolac tromethamine, or placebo.
# Bolus IV injectable 2 ml solutions were prepared by solubilizing diclofenac sodium with hydroxypropyl-beta-cyclodextrin. The formulation strengths were as follows: • Formulation: Diclofenac sodium solubilized with hydroxypropyl-β-cyclodextrin • Strengths: 75 mg, 37.5 mg, 18.75 mg, 9.4 mg and 3.75 mg • Dosage: Bolus IV injection (no less than 15 sec) • Batch Number: 063004 (PPS4010) • Manufacturer: Manufactured for Javelin by Precision Pharma • Storage Conditions: Room temperature
# Active Control/Comparator: • Formulation: Ketorolac Tromethamine • Strength: 30 mg • Dosage: Bolus IV injection (no less than 15 sec) • Batch Number: 21-430-DK • Manufacturer: Abbott Labs • Storage Conditions: Room temperature
# Pain was assessed by each patient at Baseline (0 hour: Visual Analog Scale (VAS) and categorical pain intensity only), at 5, 15, 30 and 45 minutes, and at 1, 1.5, 2, 3, 4, 5, 6, 7, 8, 10, 12 and 24 hours after administration of study medication and immediately prior to the first dose of rescue medication. At each post-dose time period, levels of pain intensity (categorical and VAS) and pain relief (categorical and VAS) was assessed by each patient. […]
# The presence of a dose-response was tested with a step-down testing procedure. Total pain relief (TOTPAR), peak pain relief, pain intensity difference (SPID), summed peak reduction in pain intensity difference (SPRID), and patient global evaluation was analyzed with analysis of variance (ANOVA) with treatment, center, and baseline categorical pain intensity as factors. […] Time to onset of perceptible relief and time to onset of meaningful relief was analyzed with survival analysis techniques. […] A 95% confidence interval for each estimated median time to event was calculated. […]
compound,measurement,setting,value
"O=C(c1ccccc1)c1ccc2n1CCC2C(=O)O (stereo not drawn) [ketorolac, ketorolac tromethamine]",% Maximum Effect (TOTPAR),30 mg single bolus IV injection (active comparator),100%
same,TOTPAR (Sum of Pain Relief VAS 0–100 mm ratings 0–6 hours),"30 mg single bolus IV injection (active comparator), value (SEM)",400.3 (SEM 36)
same,peak analgesic response compared with that of diclofenac (about 80% pain relief),30 milligrams,Similar
